Measurements reported in the NIST ThermoML archive (doi:10.1021/je0301242).

Assay: excess molar enthalpy (molar enthalpy of mixing); xn = mol fraction of the nth substance listed
Settings: 323.15 K, Liquid, Flow calorimetry

COC [dimethyl ether] + CCC
3060 kPa
Settings	excess molar enthalpy [kJ/mol]
x2 = 0.0397	0.092
x2 = 0.0803	0.179
x2 = 0.1218	0.263
x2 = 0.1643	0.34
x2 = 0.2076	0.409
x2 = 0.252	0.469
x2 = 0.2974	0.52
x2 = 0.3439	0.563
x2 = 0.3914	0.597
x2 = 0.4401	0.616
x2 = 0.49	0.626
x2 = 0.5411	0.625
x2 = 0.5935	0.608
x2 = 0.6472	0.575
x2 = 0.7023	0.529
x2 = 0.7587	0.458
x2 = 0.8167	0.368
x2 = 0.8762	0.255
x2 = 0.9373	0.125

C=CC [propene] + COC
3000 kPa
Settings	excess molar enthalpy [kJ/mol]
x1 = 0.0427	0.024
x1 = 0.0861	0.047
x1 = 0.1301	0.065
x1 = 0.1748	0.084
x1 = 0.2203	0.101
x1 = 0.2664	0.117
x1 = 0.3133	0.128
x1 = 0.361	0.139
x1 = 0.4095	0.148
x1 = 0.4587	0.154
x1 = 0.5088	0.156
x1 = 0.5597	0.155
x1 = 0.6115	0.152
x1 = 0.6641	0.145
x1 = 0.7177	0.133
x1 = 0.7722	0.116
x1 = 0.8277	0.093
x1 = 0.8841	0.067
x1 = 0.9415	0.033
